Test results reported in US20220031680A1, “Donecopride As Neuroprotective Agent In the Treatment of Neurodegenerative Diseases” (priority 2018, published 2022).
Where “and” joins values, the source holds several entries; their conditions need not be identical. Equal values may be shown once.

System: α-syn
Assay: α-syn aggregation in TH neurons injured with MPP+
Assay type: cell-based, rat
Settings: MPP+ 4 μM 48 h; 1 h pre-incubation
Description: The aim of the present study was to investigate the neuroprotective effect of MR36014 and MR33583 (at 4 concentrations) on dopaminergic TH-positive neurons injured with MPP^+. The test compounds were pre-incubated for 1 hour before MPP^+ application (4 μM for 48 h). The neuroprotective effect (survival and neurite network) of test compounds was investigated. In addition, the effect on the cytoplasmic alpha-synuclein accumulation was studied.
Rat dopaminergic neurons were cultured as described by Callizot et al. (2019) PLoS One 14:e0215277 and Visanji et al. (2008) FASEB J. 22:2488-2497. Briefly, pregnant female rat (Wistar) of 15 days of gestation were killed using a deep anesthesia with CO2 chamber and a cervical dislocation. The midbrains obtained from 15-day-old rat embryos (Janvier, France) were dissected under a microscope. […]
Midbrains were dissociated by trypsinisation for 20 min at 37° C. […] Viable cells were counted in a Neubauer cytometer using the trypan blue exclusion test. […]
Briefly, on day 6 of culture, the medium was removed, and fresh medium was added, with or without test compounds and with or without MPP^+ for 48 hours diluted in control medium. 6 wells per condition were assessed. […]
Test compounds were tested in 96-well plate (n=6 culture wells per condition). […] The following conditions were assessed: […]

| SMILES | concentrations reducing accumulation/aggregation of α-syn |
| --- | --- |
| COc1cc(N)c(F)cc1C(=O)CCC1CCN(CC2CCCC2)CC1 [MR33583] | 50 nM and 100 nM |
| COc1cc(N)c(F)cc1C(=O)CCC1CCN(CC2CCCCCC2)CC1 [MR36014] | all investigated doses |
